{"source": "ChEMBL document CHEMBL4765493", "about": "“Berberine Directly Targets the NEK7 Protein to Block the NEK7-NLRP3 Interaction and Exert Anti-inflammatory Activity” (J Med Chem, 2021)", "key": {"[1]": {"experiment": "Inhibition of LPS + nigericin-induced IL-1beta secretion in PMA-differentiated human THP-1 cells at 20 uM incubated for 24 hrs by ELISA", "assay_type": "functional"}, "HEK293": {"system": "HEK293", "experiment": "Inhibition of NEK7-NLRP3 interaction (unknown origin) expressed in HEK293 cells at 10 uM incubated for 24 hrs by Co-IP assay", "assay_type": "cell-based", "conditions": "Homo sapiens"}}, "note": "The source made the active and inactive calls. The calls are words filed in the database; no cut-off is given here."}
{"smiles": "COc1c(OCCOCCNC(=O)CCCC[C@@H]2SC[C@@H]3NC(=O)N[C@@H]32)ccc2cc3[n+](cc12)CCc1cc2c(cc1-3)OCO2", "values": [{"measurement": "inhibition at 20 µM", "setting": "[1]", "value": 26, "unit": "%"}]}
{"smiles": "COc1cc2c(cc1OCCCNC(=O)CCCC[C@@H]1SC[C@@H]3NC(=O)N[C@@H]31)CC[n+]1cc3c(OC)c(OC)ccc3cc1-2", "values": [{"measurement": "inhibition at 20 µM", "setting": "[1]", "value": -49, "unit": "%"}]}
{"smiles": "COc1ccc2cc3[n+](cc2c1OCCCNC(=O)CCCC[C@@H]1SC[C@@H]2NC(=O)N[C@@H]21)CCc1cc2c(cc1-3)OCO2", "values": [{"measurement": "inhibition at 20 µM", "setting": "[1]", "value": -92, "unit": "%"}]}
{"smiles": "COc1ccc2cc3[n+](cc2c1OCCOCCNC(=O)CCCC[C@@H]1SC[C@@H]2NC(=O)N[C@@H]21)CCc1cc2c(cc1-3)OCO2", "values": [{"measurement": "inhibition at 20 µM", "setting": "[1]", "value": 10, "unit": "%"}]}
{"smiles": "C#CCOCCOc1cc(C2(C(F)(F)F)N=N2)ccc1C(=O)NCCOCCOCCOc1ccc2cc3[n+](cc2c1OC)CCc1cc2c(cc1-3)OCO2", "values": [{"measurement": "inhibition at 20 µM", "setting": "[1]", "value": 80, "unit": "%"}]}
{"smiles": "COc1cc2c(cc1OCCOCCNC(=O)CCCC[C@@H]1SC[C@@H]3NC(=O)N[C@@H]31)CC[n+]1cc3c(OC)c(OC)ccc3cc1-2", "values": [{"measurement": "inhibition at 20 µM", "setting": "[1]", "value": 75, "unit": "%"}]}
{"smiles": "COc1ccc2cc3[n+](cc2c1OCCCCCNC(=O)CCCC[C@@H]1SC[C@@H]2NC(=O)N[C@@H]21)CCc1cc2c(cc1-3)OCO2", "values": [{"measurement": "inhibition at 20 µM", "setting": "[1]", "value": -2, "unit": "%"}]}
{"smiles": "COc1cc2c(cc1OC)-c1cc3ccc(OC)c(OC)c3c[n+]1CC2", "values": [{"measurement": "inhibition", "setting": "HEK293", "value": "inactive"}]}
{"smiles": "COc1cc2c(cc1OC)-c1cc3ccc(OC)c(OCCCCCNC(=O)CCCC[C@@H]4SC[C@@H]5NC(=O)N[C@@H]54)c3c[n+]1CC2", "values": [{"measurement": "inhibition at 20 µM", "setting": "[1]", "value": 77, "unit": "%"}]}
